Consider seven molecules from patent publication US20260355323A1, “CEREBLON-RECRUITING BCL-XL/BCL-2 DUAL DEGRADERS” (University of Florida Research Foundation, Incorporated, priority 2022, published 2026).

The test system of test [1] is MOLT-4 acute lymphoblastic leukemia cells. Nature of the test: Cell viability, tetrazolium-based MTS assay, MOLT-4. Particulars: Homo sapiens, MOLT-4, 48 h; read-out: Anti-Cancer Activity EC50 (48 hr), MOLT-4. On the procedure:
(§1) Acute lymphoblastic leukemia cells (MOLT-4 and RS4;11) were incubated with increasing concentrations of Bcl-xL/Bcl-2 degraders for 48 h. Cell viability was measured by tetrazolium-based MTS assay.

The subject of test [2] is WI-38 irradiation-induced senescent cells (IR-SC). Put plainly: Senolytic activity, cell viability (PrestoBlue HS), WI-38 IR-SC. Format: cell-based. The following applies: Homo sapiens, 72 h. On the procedure: To induce senescence in WI-38 and HUVEC, cells were subjected to x-ray irradiation at 20 Gray using X-RAD 320 biological irradiator. Following between 10 to 15 days after irradiation, senescence was induced in cells, and irradiation-induced senescent cells (IR-SC) were then used for cell viability and Western blotting tests.
(§2) WI-38 and HUVEC cells were incubated with increasing concentrations of degraders for 72 h. Cell viability was measured using PrestoBlue HS cell viability reagent.

In the next test the test system is WI-38 NC. Put plainly: Senolytic activity, cell viability (PrestoBlue HS), WI-38 NC. Format: cell-based. Particulars: Homo sapiens, 72 h. On the procedure:
as §2

Test [3] relates to RS4;11 acute lymphoblastic leukemia cells. Nature of the test: Cell viability, tetrazolium-based MTS assay, RS4;11. Particulars: Homo sapiens, RS4;11, 48 h, read-out: Anti-Cancer Activity EC50 (48 hr), RS4. On the procedure: as §1
For orientation: Tetrazolium dyes change colour on reduction, which living cells bring about.

As a reminder, the EC50 is the concentration that produces a half-maximal response.

`C[C@@]1(CN2CCN(C(=O)CN3CCN(CCCc4ccc5c(c4)CN(C4CCC(=O)NC4=O)C5=O)CC3)CC2)CCC(c2ccc(Cl)cc2)=C(CN2CCN(c3ccc(C(=O)NS(=O)(=O)c4ccc(N[C@H](CCN5CCCOCC5)CSc5ccccc5)c(S(=O)(=O)C(F)(F)F)c4)cc3)CC2)C1` (stereo partly drawn) [Compound 6, N-((4-(((R)-4-(1,4-oxazepan-4-yl)-1-(phenylthio)butan-2-yl)amino)-3-((trifluoromethyl)sulfonyl)phenyl)sulfonyl)-4-(4-(((4R)-4′-chloro-4-((4-(2-(4-(3-(2-(2,6-dioxopiperidin-3-yl)-1-oxoisoindolin-5-yl)propyl)piperazin-1-yl)acetyl)piperazin-1-yl)methyl)-4-methyl-3,4,5,6-tetrahydro-[1,1′-biphenyl]-2-yl)methyl)piperazin-1-yl)benzamide]: the EC50 is less than 1 nM in test [1], 1 to 10 nM in test [2], more than 10000 nM in the test with WI-38 NC and less than 1 nM in test [3].

Consider `C[C@@]1(CN2CCN(C(=O)CN3CCC(CCc4ccc5c(c4)CN(C4CCC(=O)NC4=O)C5=O)CC3)CC2)CCC(c2ccc(Cl)cc2)=C(CN2CCN(c3ccc(C(=O)NS(=O)(=O)c4ccc(N[C@H](CCN5CCCOCC5)CSc5ccccc5)c(S(=O)(=O)C(F)(F)F)c4)cc3)CC2)C1` (stereo partly drawn) [Compound 7, N-((4-(((R)-4-(1,4-oxazepan-4-yl)-1-(phenylthio)butan-2-yl)amino)-3-((trifluoromethyl)sulfonyl)phenyl)sulfonyl)-4-(4-(((4R)-4′-chloro-4-((4-(2-(4-(2-(2-(2,6-dioxopiperidin-3-yl)-1-oxoisoindolin-5-yl)ethyl)piperidin-1-yl)acetyl)piperazin-1-yl)methyl)-4-methyl-3,4,5,6-tetrahydro-[1,1′-biphenyl]-2-yl)methyl)piperazin-1-yl)benzamide], for which the EC50 in test [1] is less than 1 nM; in test [2], 1 to 10 nM; in the test on WI-38 NC it was more than 10000 nM; in test [3] it was less than 1 nM.

Take `C[C@@]1(CN2CCN(C(=O)CN3CCC(CN4CCN(c5ccc6c(c5)CN(C5CCC(=O)NC5=O)C6=O)CC4)CC3)CC2)CCC(c2ccc(Cl)cc2)=C(CN2CCN(c3ccc(C(=O)NS(=O)(=O)c4ccc(N[C@H](CCN5CCCOCC5)CSc5ccccc5)c(S(=O)(=O)C(F)(F)F)c4)cc3)CC2)C1` (stereo partly drawn) [Compound 8, N-((4-(((R)-4-(1,4-oxazepan-4-yl)-1-(phenylthio)butan-2-yl)amino)-3-((trifluoromethyl)sulfonyl)phenyl)sulfonyl)-4-(4-(((4R)-4′-chloro-4-((4-(2-(4-((4-(2-(2,6-dioxopiperidin-3-yl)-1-oxoisoindolin-5-yl)piperazin-1-yl)methyl)piperidin-1-yl)acetyl)piperazin-1-yl)methyl)-4-methyl-3,4,5,6-tetrahydro-[1,1′-biphenyl]-2-yl)methyl)piperazin-1-yl)benzamide]: the EC50 in test [1] is less than 1 nM; in test [2] it was 1 to 10 nM; in the test with WI-38 NC, more than 10000 nM; in test [3], less than 1 nM.

On to `C[C@@]1(CN2CCN(C(=O)CCCN3CCC(CN4CCN(c5ccc6c(c5)CN(C5CCC(=O)NC5=O)C6=O)CC4)CC3)CC2)CCC(c2ccc(Cl)cc2)=C(CN2CCN(c3ccc(C(=O)NS(=O)(=O)c4ccc(N[C@H](CCN5CCCOCC5)CSc5ccccc5)c(S(=O)(=O)C(F)(F)F)c4)cc3)CC2)C1` (stereo partly drawn) [Compound 9, N-((4-(((R)-4-(1,4-oxazepan-4-yl)-1-(phenylthio)butan-2-yl)amino)-3-((trifluoromethyl)sulfonyl)phenyl)sulfonyl)-4-(4-(((4R)-4′-chloro-4-((4-(4-(4-((4-(2-(2,6-dioxopiperidin-3-yl)-1-oxoisoindolin-5-yl)piperazin-1-yl)methyl)piperidin-1-yl)butanoyl)piperazin-1-yl)methyl)-4-methyl-3,4,5,6-tetrahydro-[1,1′-biphenyl]-2-yl)methyl)piperazin-1-yl)benzamide], for which the EC50 in test [1] is less than 1 nM; in test [2], 10 to 100 nM; with WI-38 NC, more than 10000 nM; in test [3], less than 1 nM.

`C[C@@]1(CN2CCN(C(=O)CN3CCC(CCN4CCN(c5ccc6c(c5)CN(C5CCC(=O)NC5=O)C6=O)CC4)CC3)CC2)CCC(c2ccc(Cl)cc2)=C(CN2CCN(c3ccc(C(=O)NS(=O)(=O)c4ccc(N[C@H](CCN5CCCOCC5)CSc5ccccc5)c(S(=O)(=O)C(F)(F)F)c4)cc3)CC2)C1` (stereo partly drawn) [Compound 10, N-((4-(((R)-4-(1,4-oxazepan-4-yl)-1-(phenylthio)butan-2-yl)amino)-3-((trifluoromethyl)sulfonyl)phenyl)sulfonyl)-4-(4-(((4R)-4′-chloro-4-((4-(2-(4-(2-(4-(2-(2,6-dioxopiperidin-3-yl)-1-oxoisoindolin-5-yl)piperazin-1-yl)ethyl)piperidin-1-yl)acetyl)piperazin-1-yl)methyl)-4-methyl-3,4,5,6-tetrahydro-[1,1′-biphenyl]-2-yl)methyl)piperazin-1-yl)benzamide]: the EC50 in test [1] was less than 1 nM; in test [2], 10 to 100 nM; in the test with WI-38 NC it was more than 10000 nM; in test [3], less than 1 nM.

`C[C@@]1(CN2CCC(CN3CCN(CC#Cc4ccc5c(c4)CN(C4CCC(=O)NC4=O)C5=O)CC3)CC2)CCC(c2ccc(Cl)cc2)=C(CN2CCN(c3ccc(C(=O)NS(=O)(=O)c4ccc(N[C@H](CCN5CCCOCC5)CSc5ccccc5)c(S(=O)(=O)C(F)(F)F)c4)cc3)CC2)C1` (stereo partly drawn) [Compound 13, N-((4-(((R)-4-(1,4-oxazepan-4-yl)-1-(phenylthio)butan-2-yl)amino)-3-((trifluoromethyl)sulfonyl)phenyl)sulfonyl)-4-(4-(((4R)-4′-chloro-4-((4-((4-(3-(2-(2,6-12 dioxopiperidin-3-yl)-1-oxoisoindolin-5-yl)prop-2-yn-1-yl)piperazin-1-yl)methyl)piperidin-1-yl)methyl)-4-methyl-3,4,5,6-tetrahydro-[1,1′-biphenyl]-2-yl)methyl)piperazin-1-14 yl)benzamide]: the EC50 in test [1] was less than 1 nM; in test [2], 1 to 10 nM; in the test with WI-38 NC, more than 10000 nM; in test [3], less than 1 nM.

As to `CC1(CN2CCN(C(=O)CN3CCN(C(=O)CCCCNc4cccc5c4C(=O)N(C4CCC(=O)NC4=O)C5=O)CC3)CC2)CCC(c2ccc(Cl)cc2)=C(CN2CCN(c3ccc(C(=O)NS(=O)(=O)c4ccc(N[C@H](CCN5CCOCC5)CSc5ccccc5)c(S(=O)(=O)C(F)(F)F)c4)cc3)CC2)C1` (stereo partly drawn) [Compound 14, 4-(4-((4′-chloro-4-((4-(2-(4-(5-((2-(2,6-dioxopiperidin-3-yl)-1,3-dioxoisoindolin-4-yl)amino)pentanoyl)piperazin-1-yl)acetyl)piperazin-1-yl)methyl)-4-methyl-3,4,5,6-tetrahydro-[1,1′-biphenyl]-2-yl)methyl)piperazin-1-yl)-N-((4-(((R)-4-morpholino-1-(phenylthio)butan-2-yl)amino)-3-((trifluoromethyl)sulfonyl)phenyl)sulfonyl)benzamide], the EC50 in test [1] was less than 1 nM; in test [2], 10000 to 100000 nM; in the test with WI-38 NC it was more than 10000 nM; in test [3], less than 1 nM.
